From patent US7205316B2, “Tri- and bi-cyclic heteroaryl histamine-3 receptor ligands” (Abbott Laboratories, priority 2004, dated 2007) come the findings set out here.

Structures can show the parent of a compound that is named as a salt.

The compound `Cc1nc2cc(-c3ccc4nc(CCN5CCC[C@H]5C)ccc4c3)ccc2s1` (as salt: hydrochloride) [Example 14, 6-(2-Methyl-benzothiazol-5-yl)-2-[2-(2R-methyl-pyrrolidin-1-yl)-ethyl]-quinoline] showed a melting point of 182 to 183 °C.
